The subject of the test is Aβ42 production in rat primary neuronal culture. Nature of the test: Quantification of Aβ peptide in culture of neurons from rat fetus brain (Aβ ELISA). The conditions noted are these: Primary cortical neuron, 72 h, rat primary cortical neurons (embryonic day 18 Wistar), three days after addition of the compound, Aβx-42 ELISA of medium, read-out: Aβ42 production reducing effect IC50. The class given is cell-based. The protocol: Quantification of Aβ Peptide in Culture of Neurons from Rat Fetus Brain
(1) Rat Primary Neuronal Culture
Primary neuronal cultures were prepared from the cerebral cortex of embryonic day 18 Wistar rats (Charles River Japan, Yokohama, Japan). Specifically, the embryos were aseptically removed from pregnant rats under ether anesthesia. The brain was isolated from the embryo and immersed in an ice-cold L-15 medium (Invitrogen Corp. Cat #11415-064, Carlsbad, Calif., USA, or SIGMA L1518, for example). The cerebral cortex was collected from the isolated brain under a stereoscopic microscope. The cerebral cortex fragments collected were enzymatically treated in an enzyme solution containing 0.25% trypsin (Invitrogen Corp. Cat #15050-065, Carlsbad, Calif., USA) and 0.01% DNase (Sigma D5025, St. Louis, Mo., USA) at 37° C. for 30 minutes to disperse the cells. Here, the enzymatic reaction was stopped by adding inactivated horse serum to the solution. The enzymatically treated solution was centrifuged at 1,500 rpm for five minutes to remove the supernatant. 5 to 10 ml of a medium was added to the resulting cell mass. Neurobasal medium (Invitrogen Corp. Cat #21103-049, Carlsbad, Calif., USA) supplemented with 2% B27 supplement (Invitrogen Corp. Cat #17504-044, Carlsbad, Calif., USA), 25 μM 2-mercaptoethanol (2-ME, WAKO Cat #139-06861, Osaka, Japan), 0.5 mM L-glutamine (Invitrogen Corp. Cat #25030-081, Carlsbad, Calif., USA), and Antibiotics-Antimycotics (Invitrogen Corp. Cat #15240-062, Carlsbad, Calif., USA) was used as the medium (Neurobasal/B27/2-ME). However, the above Neurobasal medium not supplemented with 2-ME (Neurobasal/B27) was used for the assay. The cells were redispersed by mild pipetting of the cell mass to which the medium was added. The cell dispersion was filtered through a 40-μm nylon mesh (Cell Strainer, Cat #35-2340, Becton Dickinson Labware, Franklin Lakes, N.J., USA) to remove the remaining cell mass, and thus a neuronal cell suspension was obtained. The neuronal cell suspension was diluted with the medium and then plated in a volume of 100 μl/well at an initial cell density of 5×10^5 cells/cm^2 in a 96-well polystyrene culture plate pre-coated with poly-L or D-lysine (Falcon Cat #35-3075, Becton Dickinson Labware, Franklin Lakes, N.J., USA coated with poly-L-lysine using the method shown below, or BIOCOAT™ cell environments Poly-D-lysine cell ware 96-well plate, Cat #35-6461, Becton Dickinson Labware, Franklin Lakes, N.J., USA). Poly-L-lysine coating was carried out as follows. 100 μg/ml of a poly-L-lysine (SIGMA P2636, St. Louis, Mo., USA) solution was aseptically prepared with a 0.15 M borate buffer (pH 8.5). 100 μl/well of the solution was added to the 96-well polystyrene culture plate and incubated at room temperature for one or more hours or at 4° C. overnight or longer. The coated 96-well polystyrene culture plate was washed with sterile water four or more times, and then dried or rinsed with, for example, sterile PBS or medium, and used for cell plating. The plated cells were cultured in the culture plate at 37° C. in 5% CO2-95% air for one day. Then, the total amount of the medium was replaced with a fresh Neurobasal™/B27/2-ME medium, and then the cells were cultured for further three days.
The drug was added to the culture plate on Day 4 of culture as follows. The total amount of the medium was removed from the wells, and 180 μl/well of Neurobasal medium not containing 2-ME and containing 2% B-27 (Neurobasal/B27) was added thereto. A solution of the test compound in dimethyl sulfoxide (hereinafter abbreviated as DMSO) was diluted with Neurobasal/B27 at 10-fold of the final concentration. 20 μl/well of the dilution was added to and sufficiently mixed with the medium. The final DMSO concentration was 1% or less. Only DMSO was added to the control group.
The cells were cultured for three days after addition of the compound, and the total amount of the medium was collected. […]
For orientation: ELISA stands for enzyme-linked immunosorbent assay.
The term IC50 denotes the concentration at which inhibition is half-maximal. `COc1cc(/C=C/c2nc3n(n2)CCC[C@]3(O)c2ccccc2F)ccc1-n1cnc(C)c1` (single isomer, unassigned) [Example 59, (−)-8-(2-fluorophenyl)-2-{(E)-2-[3-methoxy-4-(4-methyl-1H-imidazol-1-yl)phenyl]vinyl}-5,6,7,8-tetrahydro-[1,2,4]triazolo[1,5-a]pyridin-8-ol]: the IC50 was found to be 45 nM. Under `COc1nc(/C=C/c2nc3n(n2)CCOC3c2ccccc2C(F)(F)F)ccc1-n1cnc(C)c1` (single isomer, unassigned; (-)) [Example 368, (−)-2-{(E)-2-[6-methoxy-5-(4-methyl-1H-imidazol-1-yl)pyridin-2-yl]vinyl}-8-(2-trifluoromethylphenyl)-5,6-dihydro-8H-[1,2,4]triazolo[5,1-c][1,4]oxazine] stands 25 nM.

For the molecule `COc1nc(/C=C/c2nc3n(n2)CC[C@H]3c2ccccc2)ccc1-n1cnc(C)c1` [Example 376, (S)-2-{(E)-2-[6-methoxy-5-(4-methyl-1H-imidazol-1-yl)pyridin-2-yl]vinyl}-7-phenyl-6,7-dihydro-5H-pyrrolo[1,2-b][1,2,4]triazole], the half-maximal inhibitory concentration (IC50) was 28 nM.

For the molecule `Cc1cn(-c2ccc(/C=C/c3nc4n(n3)CCC[C@@H]4c3ccccc3C(F)(F)F)nc2OCC(F)F)cn1` (single isomer, unassigned) [Example 354, (−)-2-{(E)-2-[5-(4-methyl-1H-imidazol-1-yl)-6-(2,2-difluoroethoxy)pyridin-2-yl]vinyl}-8-(2-trifluoromethylphenyl)-5,6,7,8-tetrahydro-[1,2,4]triazolo[1,5-a]pyridine], the half-inhibitory concentration (IC50) was 37 nM. The result for `COc1cc(/C=C/c2nc3n(n2)CCC3c2ccccc2)ccc1-n1cnc(C)c1` (single isomer, unassigned; (-)) [Example 141, (−)-2-{(E)-2-[3-methoxy-4-(4-methyl-1H-imidazol-1-yl)phenyl]vinyl}-7-phenyl-6,7-dihydro-5H-pyrrolo[1,2-b][1,2,4]triazole] reads 36 nM; that for `COc1nc(/C=C/c2nc3n(n2)CC[C@@H](C)N3c2ccc(F)cc2F)ccc1-n1cnc(C)c1` [Example 371, (R)-4-(2,4-difluorophenyl)-2-{(E)-2-[6-methoxy-5-(4-methyl-1H-imidazol-1-yl)pyridin-2-yl]vinyl}-5-methyl-4,5,6,7-tetrahydro-[1,2,4]triazolo[1,5-a]pyrimidine], 27 nM; that for `COc1nc(/C=C/c2nc3n(n2)CCCC3c2cc(F)c(F)c(F)c2)ccc1-n1cnc(C)c1` (single isomer, unassigned) [Example 169, (−)-2-{(E)-2-[6-methoxy-5-(4-methyl-1H-imidazol-1-yl)pyridin-2-yl]vinyl}-8-(3,4,5-trifluorophenyl)-5,6,7,8-tetrahydro-[1,2,4]triazolo[1,5-a]pyridine], 22 nM. The result for `COc1cc(/C=C/c2nc3n(n2)CCCC3(O)c2ccc(C(C)C)cc2)ccc1-n1cnc(C)c1` (single isomer, unassigned) [Example 55, (−)-8-(4-isopropylphenyl)-2-{(E)-2-[3-methoxy-4-(4-methyl-1H-imidazol-1-yl)phenyl]vinyl}-5,6,7,8-tetrahydro[1,2,4]triazolo[1,5-a]pyridin-8-ol] reads 28 nM; that for `COc1cc(/C=C(\F)c2nc3n(n2)CCCC3(O)c2cc(F)c(F)c(F)c2)ccc1-n1cnc(C)c1` (single isomer, unassigned; (-)) [Example 94, (−)-2-{(Z)-1-fluoro-2-[3-methoxy-4-(4-methyl-1H-imidazol-1-yl)phenyl]vinyl}-8-(3,4,5-trifluorophenyl)-5,6,7,8-tetrahydro[1,2,4]triazolo[1,5-a]pyridin-8-ol], 52 nM. The result for `COc1nc(/C=C/c2nc3n(n2)CCOC3c2ccc(Cl)cc2)ccc1-n1cnc(C)c1` (single isomer, unassigned; (-)) [Example 262, (−)-8-(4-chlorophenyl)-2-{(E)-2-[6-methoxy-5-(4-methyl-1H-imidazol-1-yl)pyridin-2-yl]vinyl}-5,6-dihydro-8H-[1,2,4]triazolo[5,1-c][1,4]oxazine] reads 74 nM; that for `COc1nc(/C=C/c2nc3n(n2)CCCC3c2cccc(F)c2)ccc1-n1cnc(C)c1` (single isomer, unassigned) [Example 189, (−)-8-(3-fluorophenyl)-2-{(E)-2-[6-methoxy-5-(4-methyl-1H-imidazol-1-yl)pyridin-2-yl]vinyl}-5,6,7,8-tetrahydro[1,2,4]triazolo[1,5-a]pyridine], 43 nM; that for `COc1cc(/C=C/c2nc3n(n2)CCC[C@H]3c2ccc(F)c(F)c2)cnc1-n1cnc(C)c1` (single isomer, unassigned) [Example 218, (−)-8-(3,4-difluorophenyl)-2-{(E)-2-[5-methoxy-6-(4-methyl-1H-imidazol-1-yl)pyridin-3-yl]vinyl}-5,6,7,8-tetrahydro-[1,2,4]triazolo[1,5-a]pyridine], 69 nM.

Turning to `COc1nc(/C=C/c2nc3n(n2)CCC[C@H]3c2ccc(F)c(F)c2)ccc1-n1cnc(C)c1` (single isomer, unassigned) [Example 171, (−)-8-(3,4-difluorophenyl)-2-{(E)-2-[6-methoxy-5-(4-methyl-1H-imidazol-1-yl)pyridin-2-yl]vinyl}-5,6,7,8-tetrahydro-[1,2,4]triazolo[1,5-a]pyridine], the IC50 is 17 nM. Turning to `COc1nc(/C=C/c2nc3n(n2)CCC[C@@H]3c2cccc(F)c2C)ccc1-n1cnc(C)c1` (single isomer, unassigned) [Example 333, (−)-8-(3-fluoro-2-methylphenyl)-2-{(E)-2-[6-methoxy-5-(4-methyl-1H-imidazol-1-yl)pyridin-2-yl]vinyl}-5,6,7,8-tetrahydro-[1,2,4]triazolo[1,5-a]pyridine], the half-inhibitory concentration (IC50) turned out to be 10 nM.

With `COc1nc(/C=C/c2nc3n(n2)CCC[C@H]3c2ccc(F)cc2)ccc1-n1cnc(C)c1` (single isomer, unassigned) [Example 173, (−)-8-(4-fluorophenyl)-2-{(E)-2-[6-methoxy-5-(4-methyl-1H-imidazol-1-yl)pyridin-2-yl]vinyl}-5,6,7,8-tetrahydro-[1,2,4]triazolo[1,5-a]pyridine], the IC50 came out at 37 nM. The result for `COc1nc(/C=C/c2nc3n(n2)CCC3c2cc(F)cc(F)c2)ccc1-n1cnc(C)c1` (single isomer, unassigned; (-)) [Example 384, (−)-7-(3,5-difluorophenyl)-2-{(E)-2-[6-methoxy-5-(4-methyl-1H-imidazol-1-yl)pyridin-2-yl]vinyl}-6,7-dihydro-5H-pyrrolo[1,2-b][1,2,4]triazole] reads 36 nM; that for `COc1nc(/C=C/c2nc3n(n2)CCCC3c2cc(F)cc(F)c2)ccc1-n1cnc(C)c1` (single isomer, unassigned; (-)) [Example 365, (−)-8-(3,5-difluorophenyl)-2-{(E)-2-[6-methoxy-5-(4-methyl-1H-imidazol-1-yl)pyridin-2-yl]vinyl}-5,6,7,8-tetrahydro-[1,2,4]triazolo[1,5-a]pyridine], 21 nM. Consider `COc1nc(/C=C/c2nc3n(n2)CCC(C)N3c2ccccc2C(F)(F)F)ccc1-n1cnc(C)c1` (single isomer, unassigned; (+)) [Example 373, (+)-2-{(E)-2-[6-methoxy-5-(4-methyl-1H-imidazol-1-yl)pyridin-2-yl]vinyl}-5-methyl-4-(2-trifluoromethylphenyl)-4,5,6,7-tetrahydro-[1,2,4]triazolo[1,5-a]pyrimidine], for which the half-maximal inhibitory concentration (IC50) came to 29 nM.
